The text below walks through data of patent US10426850B2, “Collagen mimetic peptides for targeting collagen strands for in vitro and in vivo imaging and therapeutic use” (The Johns Hopkins University, priority 2011, dated 2019).

Data set [1] can be described thus: CD refolding kinetics / triple helix folding rate of CMPs. Format: physicochemical. Conditions: after UV exposure; thermal quenching from 80° C. to 25° C. The procedure: Circular dichroism spectroscopy. CD spectra were collected on JASCO 715 spectrophotometer equipped with a JASCO PTC-348 WI temperature controller and quartz cells (0.1 mm path length). CMP solutions (320 μL, 150 μM in 1×PBS) were stored at 4° C. for at least 24 hours before measurement. For photo-decaging, samples were exposed to 365 nm UV light for at least 30 minutes before the 4° C. incubation. The thermal melting studies were performed by measuring the ellipticity at 225 nm with 60° C./hr heating rate. Raw CD signal was normalized to mean residue ellipticity based on the peptide's length and concentration (Biopolymers 95:94-104 (2011)). Melting temperatures (Tm) were determined by fitting the mean residue ellipticity to a two-state model (Org Lett 8:4735-4738 (2006)). […] The CD spectra of intact and MMP-1 cleaved type I collagen (FIG. 12) was measured in 90 μg/mL protein solutions in 20 mM acetic acid buffer at 22° C. The 37° C. thermal stability profile (FIG. 2E, inset) was generated by monitoring the ellipticity at 222 nm immediately after transferring the cuvette to a temperature controlled cuvette holder pre-set to 37° C. The Tm values reported in this study are approximately 10° C. higher than the equilibrium Tm due to high heating rate (60° C./hr) (Biopolymers 73:682-688 (2004)).

For another data set, the target named is T1, intact type I collagen (Rattus norvegicus, UniProt P02454+P02466).
T1 construct: type I rat tail, BD Science; purchased BD Science; host or cells: rat tail
T1 sequence (P02454 152-1207 limits assumed): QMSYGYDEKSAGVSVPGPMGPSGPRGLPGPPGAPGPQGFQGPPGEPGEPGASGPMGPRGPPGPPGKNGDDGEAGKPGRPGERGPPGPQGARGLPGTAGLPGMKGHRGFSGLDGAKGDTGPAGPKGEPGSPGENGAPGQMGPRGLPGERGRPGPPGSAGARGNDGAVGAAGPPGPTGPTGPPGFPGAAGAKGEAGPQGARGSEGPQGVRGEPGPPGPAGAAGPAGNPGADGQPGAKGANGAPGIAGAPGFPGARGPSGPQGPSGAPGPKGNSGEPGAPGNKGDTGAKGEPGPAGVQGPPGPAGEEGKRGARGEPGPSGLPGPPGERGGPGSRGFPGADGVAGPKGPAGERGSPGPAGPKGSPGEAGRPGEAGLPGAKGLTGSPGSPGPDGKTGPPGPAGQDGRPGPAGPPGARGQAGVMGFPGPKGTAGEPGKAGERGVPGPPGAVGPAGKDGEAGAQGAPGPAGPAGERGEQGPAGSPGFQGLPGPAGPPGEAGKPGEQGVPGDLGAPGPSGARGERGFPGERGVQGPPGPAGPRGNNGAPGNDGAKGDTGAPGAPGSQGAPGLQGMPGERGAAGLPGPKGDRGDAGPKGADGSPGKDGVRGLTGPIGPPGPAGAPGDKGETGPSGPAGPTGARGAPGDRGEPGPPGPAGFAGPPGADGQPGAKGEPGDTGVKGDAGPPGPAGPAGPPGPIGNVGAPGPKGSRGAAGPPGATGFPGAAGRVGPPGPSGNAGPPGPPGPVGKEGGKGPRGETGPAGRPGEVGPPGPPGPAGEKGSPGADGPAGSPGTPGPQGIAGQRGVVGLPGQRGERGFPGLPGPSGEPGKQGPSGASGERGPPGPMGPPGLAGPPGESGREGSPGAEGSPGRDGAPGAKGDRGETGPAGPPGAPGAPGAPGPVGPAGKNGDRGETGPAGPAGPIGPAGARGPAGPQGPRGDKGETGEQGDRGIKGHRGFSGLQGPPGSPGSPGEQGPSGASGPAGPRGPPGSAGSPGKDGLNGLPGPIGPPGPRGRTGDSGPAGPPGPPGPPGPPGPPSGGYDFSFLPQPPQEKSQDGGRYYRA
T1 sequence (P02466 86-1125 limits assumed): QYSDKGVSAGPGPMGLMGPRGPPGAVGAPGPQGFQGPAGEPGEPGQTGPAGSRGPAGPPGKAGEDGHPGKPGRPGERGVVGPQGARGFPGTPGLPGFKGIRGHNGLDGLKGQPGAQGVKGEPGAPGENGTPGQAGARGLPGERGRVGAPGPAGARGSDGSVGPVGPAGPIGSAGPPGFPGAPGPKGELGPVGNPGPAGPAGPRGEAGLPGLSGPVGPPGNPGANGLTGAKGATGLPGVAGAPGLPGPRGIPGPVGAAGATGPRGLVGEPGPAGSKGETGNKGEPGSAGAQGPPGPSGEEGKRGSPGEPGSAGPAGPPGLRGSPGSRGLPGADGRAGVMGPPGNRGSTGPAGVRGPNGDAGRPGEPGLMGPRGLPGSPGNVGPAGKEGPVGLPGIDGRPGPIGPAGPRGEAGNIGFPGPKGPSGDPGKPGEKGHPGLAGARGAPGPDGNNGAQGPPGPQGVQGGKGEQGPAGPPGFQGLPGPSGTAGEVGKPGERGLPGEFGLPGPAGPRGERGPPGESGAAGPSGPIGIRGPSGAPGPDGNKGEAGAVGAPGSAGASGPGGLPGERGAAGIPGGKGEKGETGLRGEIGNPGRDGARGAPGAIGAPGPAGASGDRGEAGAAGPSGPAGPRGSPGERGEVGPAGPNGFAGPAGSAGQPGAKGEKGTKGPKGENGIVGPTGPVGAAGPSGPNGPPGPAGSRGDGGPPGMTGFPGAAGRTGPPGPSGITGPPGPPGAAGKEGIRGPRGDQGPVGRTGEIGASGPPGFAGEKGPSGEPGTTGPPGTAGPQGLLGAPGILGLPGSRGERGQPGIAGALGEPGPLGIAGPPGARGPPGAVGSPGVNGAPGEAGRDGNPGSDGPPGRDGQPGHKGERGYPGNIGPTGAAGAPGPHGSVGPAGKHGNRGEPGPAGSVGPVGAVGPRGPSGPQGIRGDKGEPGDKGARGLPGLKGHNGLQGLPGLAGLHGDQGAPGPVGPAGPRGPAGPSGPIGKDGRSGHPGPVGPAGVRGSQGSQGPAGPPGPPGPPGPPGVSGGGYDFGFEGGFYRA
In words: Photo-triggered CMP binding assay on intact non-fibrillar collagen. Conditions: intact collagens, before and after 37° C. incubation; UV-activated. The procedure:
MMP-1 digestion of type I collagen and CMP binding assays. ProMMP-1 (1 μg, EMD Millipore) was activated by p-aminophenylmercuric acetate (1.1 mM) in 132.5 μL of TNC buffer (50 mM Tris-HCl, 0.15 M NaCl, 5 mM CaCl2, 0.02% NaN3, pH 7.5) at 37° C. for 3 hr. Type I collagen (62.6 μg) was subsequently added to the MMP-1 solution and incubated at room temperature for at least 3 days. Digested products were analyzed by SDS-PAGE and circular dichroism spectroscopy (FIG. 12). Wells of nunc black 96-well maxisorp plate were charged with 50 μL of TNC buffer containing 0.5 M glycerol, and 100 μg/mL collagen or MMP-1 cleaved collagen, and incubated at room temperature. The collagen solutions used were either kept at room temperature (22° C.) or incubated at 37° C. for 1 minute just prior to coating. […] Wells were washed extensively with PBSB followed by fluorescence (ex: 489 nm, em: 533 nm) reading with a SpectraMax M-2 microplate reader (Molecular Devices). […] The background fluorescence of empty wells was subtracted from the raw fluorescence data. For estimating the amount of adsorbed protein, un-blocked collagen-coated wells were treated with 100 μM 5-(4,6-dichlorotriazinyl)aminofluorescein (DTAF, 50 μL, in 0.1 M sodium borate buffer) at room temperature for 3 hours, and the fluorescence (ex: 489 nm, em: 533 nm) of the well was measured after washing with 1×PBS. […]

For data set [2], the system named is whole cell lysate of human umbilical vein endothelial cells (HUVEC). Put plainly: SDS-PAGE staining by heat activated fluorescent CMP, cell lysate. Format: binding. Particulars: 6 μM. The procedure: To prepare MMP-1 cleaved collagen chain fragments, proMMP-1 (1 μg) was activated by p-aminophenylmercuric acetate (1.1 mM) in 132.5 μL of TNC buffer (50 mM Tris-HCl, 0.15 M NaCl, 5 mM CaCl2, 0.02% NaN3, pH 7.5) at 37° C. for 3 hr, after which type I collagen (62.6 μg) was added to the activated MMP-1 solution and incubated at room temperature for at least 3 days. To obtain the cell lysate, confluent HUVECs cultured in EGM-2 media at 37° C. were lysed with lysis buffer (25 mM Tris-HCl, 0.5% Triton X-100, 200 mM NaCl, 2 mM EDTA, phosphatase and protease inhibitors; Roche Applied Science). The lysate solution was spun at 15,000 g for 15 min and the supernatant was collected. The recombinant streptococcal collagen-like protein Scl2.28CL was expressed and characterized following the methods introduced by Mohs et al. (J. Biol. Chem. 282, 29757-29765 (2007)).
SDS-PAGE staining and imaging. Proteins were resolved on NuPAGE® Novex 4-12% bis-tris gels under denaturating conditions using an XCell SureLock™ Mini-Cell electrophoresis system (Life Technologies). […] The fluorescence intensities of the protein bands were quantified using GE ImageQuant™ TL software. After fluorescence imaging, all gels were further stained with coomassie brilliant blue (CB) G-250 (Bio-Rad) for 2-3 hr followed by washing, and imaging under white light illumination using a Gel Doc EQ system (BioRad).

As to CF-GGG-(GPO)4^NBGPO(GPO)4 [CF^NB(GPO)9], in data set [1], the “refolding kinetics (CD 225 nm)” value is “fast refolding kinetics”. Besides, on intact type I collagen, the “level of CMP binding” value is “similarly low”.

As for CF-GGG-(GPO)9 [CF(GPO)9], the “staining of cell lysate protein bands” value in data set [2] is listed as “no protein band was visualized”.
